Results published in US20260130933A1, “PHARMACEUTICAL COMPOSITION FOR PREVENTION OR TREATMENT OF NEPHROPATHY AND/OR DIABETES MELLITUS, COMPRISING ENAVOGLIFLOZIN” (DAEWOONG PHARMACEUTICAL CO., LTD., priority 2022, published 2026).

Experiment: Example 1: phase 3 trial, enavogliflozin 0.3 mg once a day as monotherapy vs placebo for 24 weeks in patients with type 2 diabetes (HbA1c, FPG, C-peptide, body weight, lipids, blood pressure, HOMA, UACR, UGCR, adiponectin, leptin, safety)
Format: in vivo, human
Experimental: When a subject voluntarily gave written consent to participate in this clinical trial, a screening test was conducted. […] However, when the administration of a hypoglycemic agent was interrupted before the clinical trial Visit 1 (screening), at least an 8-week washout period, including the discontinuation period, was required, and during this period, a stable diet and exercise program was followed. Naïve patients were screened without a separate washout period, and the criteria for naïve patients were defined as patients who had not been administered hypoglycemic agents within 24 weeks prior to the date of obtaining written consent. […] In addition, they were instructed to maintain regular exercise and dietary control starting from 8 weeks prior to screening without changing their daily life patterns during the clinical trial period.

OC[C@H]1O[C@@H](c2cc(Cc3ccc(C4CC4)cc3)c(Cl)c3c2CCO3)[C@H](O)[C@@H](O)[C@@H]1O [Enavogliflozin, (2S,3R,4R,5S,6R)-2-(7-chloro-6 (4-cyclopropylbenzyl)-2,3-dihydrobenzofuran-4-yl)-6-(hydroxymethyl)tetrahydro-2H-pyran-3,4,5-triol]
HbA1c, Mean (SD) (week 18): 6.88(0.54) %
LDL-C change from baseline, LS mean (week 18): -0.32 mg/dL
LDL-C change from baseline, Mean (week 18): 1.69 mg/dL
LDL-C, Mean (week 18): 97.16 mg/dL
Subjects achieving HbA1c target of <6.5% (week 18): 24(29.27) %
Subjects achieving HbA1c target of <7% (week 18): 47(57.32) %
Subjects achieving therapeutic glycemic response (HbA1c change >0.5% or HbA1c<7%) (week 18): 60(73.17) %
Systolic blood pressure, Mean (week 18): 121.63 mmHg
body weight change from baseline, LS mean (week 18): -3.42 kg
body weight change from baseline, Mean (week 18): -3.44 kg
diastolic blood pressure change from baseline, LS mean (week 18): −4.09 mmHg
diastolic blood pressure change from baseline, Mean (week 18): −3.63 mmHg
fasting C-peptide, Mean (SD) (week 18): 0.65 ng/mL
systolic blood pressure change from baseline, LS mean (week 18): −6.56 mmHg
systolic blood pressure change from baseline, Mean (week 18): −6.22 mmHg
total cholesterol change from baseline, LS mean (week 18): 6.45 mg/dL
total cholesterol change from baseline, Mean (week 18): 8.40 mg/dL
total cholesterol, Mean (week 18): 169.82 mg/dL
triglycerides change from baseline, LS mean (week 18): -8.82 mg/dL
triglycerides change from baseline, Mean (week 18): -4.14 mg/dL
triglycerides, Mean (week 18): 113.30 mg/dL
FPG change from baseline, LS mean difference (week 18, vs placebo): -33.40 mg/dL
HDL-C change from baseline, LS mean difference (week 18, vs placebo): 2.69 mg/dL
HOMA-IR change from baseline, LS mean difference (week 18, vs placebo): −1.49
HOMA-β change from baseline, LS mean difference (week 18, vs placebo): 22.40
HbA1c change from baseline, LS mean difference (week 18, vs placebo): −0.79 % p
LDL-C change from baseline, LS mean difference (week 18, vs placebo): -2.35 mg/dL
Odds ratio for achieving HbA1c<6.5% (week 18, vs placebo): 5.58
Odds ratio for achieving HbA1c<7% (week 18, vs placebo): 4.85
Odds ratio for achieving therapeutic response (week 18, vs placebo): 7.45
UACR change from baseline, LS mean difference (week 18, vs placebo): -13.39 g/kg
UGCR change from baseline, LS mean difference (week 18, vs placebo): 47.66 mg/mg
adiponectin change from baseline, LS mean difference (week 18, vs placebo): 1.04 µg/mL
body weight change from baseline, LS mean difference (week 18, vs placebo): -2.37 kg
diastolic blood pressure change from baseline, LS mean difference (week 18, vs placebo): −1.90 mmHg
fasting C-peptide change from baseline, LS mean difference (week 18, vs placebo): -0.11 ng/mL
leptin change from baseline, LS mean difference (week 18, vs placebo): -2.36 ng/mL
systolic blood pressure change from baseline, LS mean difference (week 18, vs placebo): −3.36 mmHg
total cholesterol change from baseline, LS mean difference (week 18, vs placebo): -0.99 mg/dL
triglycerides change from baseline, LS mean difference (week 18, vs placebo): -17.74 mg/dL
Body weight, Mean (week 24): 65.28 kg
Diastolic blood pressure, Mean (week 24): 72.68 mmHg
FPG change from baseline, LS mean (SE) (week 24): −31.66(3.68) mg/dL
FPG change from baseline, Mean (SD) (week 24): −30.00(20.73) mg/dL
FPG, Mean (SD) (week 24): 111.00(14.56) mg/dL
HDL-C change from baseline, LS mean (week 24): 4.39 mg/dL
HDL-C change from baseline, Mean (week 24): 4.13 mg/dL
HDL-C, Mean (week 24): 56.05 mg/dL
HbA1c change from baseline, LS mean (SE) (week 24): −0.88(0.10) % p
HbA1c change from baseline, Mean (SD) (week 24): −0.84(0.66) % p
HbA1c, Mean (SD) (week 24): 6.80(0.59) %
LDL-C change from baseline, LS mean (week 24): -2.92 mg/dL
LDL-C change from baseline, Mean (week 24): -1.03 mg/dL
LDL-C, Mean (week 24): 94.44 mg/dL
Subjects achieving HbA1c target of <6.5% (week 24): 29(35.37) %
Subjects achieving HbA1c target of <7% (week 24): 58(70.73) %
Subjects achieving therapeutic glycemic response (HbA1c change >0.5% or HbA1c<7%) (week 24): 68(82.93) %
Systolic blood pressure, Mean (week 24): 121.29 mmHg
body weight change from baseline, LS mean (week 24): -3.47 kg
body weight change from baseline, Mean (week 24): -3.48 kg
diastolic blood pressure change from baseline, LS mean (week 24): −3.92 mmHg
diastolic blood pressure change from baseline, Mean (week 24): −3.55 mmHg
fasting C-peptide, Mean (SD) (week 24): 0.64 ng/mL
systolic blood pressure change from baseline, LS mean (week 24): −7.27 mmHg
systolic blood pressure change from baseline, Mean (week 24): −6.55 mmHg
total cholesterol change from baseline, LS mean (week 24): 4.84 mg/dL
total cholesterol change from baseline, Mean (week 24): 6.58 mg/dL
total cholesterol, Mean (week 24): 168.00 mg/dL
triglycerides change from baseline, LS mean (week 24): -0.08 mg/dL
triglycerides change from baseline, Mean (week 24): 1.95 mg/dL
triglycerides, Mean (week 24): 119.39 mg/dL
FPG change from baseline, LS mean difference (week 24, vs placebo): -40.08 mg/dL
HDL-C change from baseline, LS mean difference (week 24, vs placebo): 4.05 mg/dL
HOMA-IR change from baseline, LS mean difference (week 24, vs placebo): −1.94
HOMA-β change from baseline, LS mean difference (week 24, vs placebo): 5.88
HbA1c change from baseline, LS mean difference (week 24, vs placebo): −0.99 % p
LDL-C change from baseline, LS mean difference (week 24, vs placebo): -6.91 mg/dL
Odds ratio for achieving HbA1c<6.5% (week 24, vs placebo): 12.10
Odds ratio for achieving HbA1c<7% (week 24, vs placebo): 9.08
Odds ratio for achieving therapeutic response (week 24, vs placebo): 12.98
UACR change from baseline, LS mean difference (week 24, vs placebo): -13.92 g/kg
UGCR change from baseline, LS mean difference (week 24, vs placebo): 47.36 mg/mg
adiponectin change from baseline, LS mean difference (week 24, vs placebo): 0.98 µg/mL
body weight change from baseline, LS mean difference (week 24, vs placebo): -2.47 kg
diastolic blood pressure change from baseline, LS mean difference (week 24, vs placebo): −3.12 mmHg
fasting C-peptide change from baseline, LS mean difference (week 24, vs placebo): -0.13 ng/mL
leptin change from baseline, LS mean difference (week 24, vs placebo): -2.99 ng/mL
systolic blood pressure change from baseline, LS mean difference (week 24, vs placebo): −5.75 mmHg
total cholesterol change from baseline, LS mean difference (week 24, vs placebo): -6.40 mg/dL
triglycerides change from baseline, LS mean difference (week 24, vs placebo): -28.56 mg/dL
